Measured values reported in US20100317052A1, “PROCESS FOR DETECTING HELICOBACTER PYLORI USING ALIPHATIC AMIDES” (priority 2006, published 2010).

How the values were obtained:
H. pylori = assay: Formation of carboxylic acid from aliphatic amide in H. pylori enriched liquid culture, SPME of vapor phase and GC-MS (SIM); format: cell-based, Helicobacter pylori; conditions: for formation of the respective acid in the vapor phase: amide added to medium containing H. pylori (collection cultures and clinical isolates), GC-MS
Experimental: In vitro ex vivo experimental tests were carried out in H. pylori cultures from collections and clinical isolates. […] The experimental tests were performed in vitro ex vivo in H. pylori cultures from collection and clinical isolates enriched in liquid medium (F12) under microaerophilic conditions. These compounds were administrated as diluted aqueous solutions (0.5 mL) to the liquid culture media (25 mL), 120 mL glass flasks hermetically sealed and encapsulated with a cap containing a septum. The collection of the acids that were formed after the amide administration described in 1 was carried out after acidification of the medium with acid tartaric (mimetizing the stomach's pH) and exposing to the flask's vapor phase for 5 minutes at 37° C. a solid-phase microextraction fiber (SPME) coated with carbowax/divinilbenzene (65 μm thickness). The search in vapor phase for the carboxylic acids generated by the bacterium's aliphatic amidases activity on the amides administrated was carried out by means of gas chromatography using a capillary column of intermediate polarity. The detection was performed by mass spectrometry comprising 3 scan cycles with selective ion monitoring (SIM) the m/z=74 for the propionic acid and m/z=88 for butyric acid.

[1] = Amide incubated in flask comprising only the medium, without any bacteria addition, SPME GC-MS; format: physicochemical; conditions: 0.5 mL of 20 mM solution, 60 minutes incubation at 37° C.
Experimental: These compounds were administrated as diluted aqueous solutions (0.5 mL) to the liquid culture media (25 mL), 120 mL glass flasks hermetically sealed and encapsulated with a cap containing a septum.
The collection of the acids that were formed after the amide administration described in 1 was carried out after acidification of the medium with acid tartaric (mimetizing the stomach's pH) and exposing to the flask's vapor phase for 5 minutes at 37° C. a solid-phase microextraction fiber (SPME) coated with carbowax/divinilbenzene (65 μm thickness).
The search in vapor phase for the carboxylic acids generated by the bacterium's aliphatic amidases activity on the amides administrated was carried out by means of gas chromatography using a capillary column of intermediate polarity.
The detection was performed by mass spectrometry comprising 3 scan cycles with selective ion monitoring (SIM) the m/z=74 for the propionic acid and m/z=88 for butyric acid.

SMILES	chromatographic area corresponding to the butyric acid (H. pylori; 0.5 mL of 20 mM solution, medium enriched with H. pylori, 60 minutes incubation at 37° C., vapor phase SPME GC-MS m/z=88)	formation of the respective acid in the vapor phase (H. pylori)	chromatographic peak corresponding to butyric acid [1]	chromatographic area corresponding to the propanoic acid (H. pylori; 0.5 mL of 20 mM solution, medium enriched with H. pylori, 60 minutes incubation at 37° C., vapor phase SPME GC-MS m/z=74)	chromatographic peak corresponding to propanoic acid [1]
CCCC(N)=O [butyramide]	6.5×10^5	the formation of the respective acids takes place	did not derive any chromatographic peak		
CCC(N)=O [propionamide]		the formation of the respective acids takes place		7.0×10^5	did not produce any chromatographic peak
